Test [1] has as its system Acinetobacter baumannii ATCC 17978. As to the kind of experiment: Antimicrobial susceptibility testing, 90% growth inhibitory concentration (IC90) determination. Format: cell-based. Particulars: Acinetobacter baumannii ATCC17978, Iso-Sensitest broth, OD 600 nm over 16 h. On the procedure:
(§1) The in vitro antimicrobial activity of the compounds was determined according to the following procedure:
(§2) The assay used a 10-points Iso-Sensitest broth medium to measure quantitatively the in vitro activity of the compounds against Acinetobacter baumannii ATCC 17978 and Acinetobacter baumannii ATCC17961.
(§3) Stock compounds in DMSO were serially twofold diluted (e.g. range from 50 to 0.097 μM final concentration) in 384 wells microtiter plates and inoculated with 49 μl the bacterial suspension in Iso-Sensitest medium to have a final cell concentration of ˜5×10^(5) CFU/ml in a final volume/well of 50 ul/well. Microtiter plates were incubated at 35+2° C.
(§4) Bacterial cell growth was determined with the measurement of optical density at X=600 nm each 20 minutes over a time course of 16 h. Growth inhibition was calculated during the logarithmic growth of the bacterial cells with determination of the concentration inhibiting 50% (IC50) and 90% (IC90) of the growth.
(§5) Table 1 provides the 90% growth inhibitory concentrations (IC90) in micromoles per liter of the compounds of present invention obtained against the strain Acinetobacter baumannii ATCC17978 and Acinetobacter baumannii ATCC17961.

Test [2] relates to Acinetobacter baumannii ATCC17961. Described as above. The format is cell-based. Particulars: 90% growth inhibitory concentration, Acinetobacter baumannii ATCC17961, Iso-Sensitest broth, OD 600 nm over 16 h; read-out: ATCC17961 IC90. As for the experimental part: as §1, §2, §3, §4, §5

Where a name gives a salt, the structure may show the parent alone.

Consider 20 molecules from patent US20230013602A1, “NOVEL IMIDAZOPYRAZINE DERIVATIVES” (Hoffmann-La Roche Inc., priority 2018, published 2023).

The term IC90 denotes the concentration needed for an effect of 90%.

As to `COc1ccc(-c2cnc3c(Nc4ccc(C(=O)N[C@@H]5CCNC5)c(C)c4)nccn23)c(F)c1F` [Example 38, 4-[[3-(2,3-difluoro-4-methoxyphenyl)imidazo[1,2-a]pyrazin-8-yl]amino]-2-methyl-N-[(3R)-pyrrolidin-3-yl]benzamide], the IC90 in test [1] was 0.16 µM; in test [2] it was 0.162 µM.
Taken in the same sequence, the figures for `COc1ccc(-c2cnc3c(Nc4ccc(C(=O)N[C@H]5C[C@@H](N)C5)c(C)c4)nccn23)c(F)c1F` [Example 35, N-(3-aminocyclobutyl)-4-[[3-(2,3-difluoro-4-methoxyphenyl)imidazo[1,2-a]pyrazin-8-yl]amino]-2-methylbenzamide] were 0.063 µM and 0.062 µM.
Taken in the same sequence, the figures for `CCc1cc(Nc2nccn3c(-c4ccc(OC)c(F)c4F)cnc23)ccc1C(=O)N[C@H]1CCC[C@@H]1N` [Example 9, N-((1S,2S)-2-aminocyclopentyl)-4-((3-(2,3-difluoro-4-methoxyphenyl)imidazo[1,2-a]pyrazin-8-yl)amino)-2-ethylbenzamide] were 0.3 µM and 0.297 µM.
Taken in the same sequence, the figures for `COc1ccc(-c2cnc3c(Nc4ccc(C(=O)N(C)CCC(=O)N5CCNCC5)c(C)c4)nccn23)cc1F` [Reference Example 10, 4-[[3-(3-fluoro-4-methoxy-phenyl)imidazo[1,2-a]pyrazin-8-yl]amino]-N,2-dimethyl-N-(3-oxo-3-piperazin-1-yl-propyl)benzamide] were 0.29 µM and 0.29 µM.
Take `CCc1cc(Nc2nccn3c(-c4ccc(OC)c(F)c4F)cnc23)ccc1C(=O)N[C@H]1CC[C@@H](N)CC1` [Example 6, Cis-N-(4-aminocyclohexyl)-4-[[3-(2,3-difluoro-4-methoxy-phenyl)imidazo[1,2-a]pyrazin-8-yl]amino]-2-ethyl-benzamide]: the 90% effect concentration (IC90) in test [1] and in test [2] was 0.088 µM in each case.
In the case of `COc1ccc(-c2cnc3c(Nc4ccc(C(=O)N[C@H]5CC[C@@H](NC(=O)[C@@H]6C[C@@H](O)CN6)CC5)c(C)c4)nccn23)c(F)c1F` [Example 34, (2S,4R)-N-[4-[[4-[[3-(2,3-difluoro-4-methoxyphenyl)imidazo[1,2-a]pyrazin-8-yl]amino]-2-methylbenzoyl]amino]cyclohexyl]-4-hydroxypyrrolidine-2-carboxamide], the IC90 in test [1] and in test [2] was 0.054 µM throughout.
For the molecule `CCc1cc(Nc2nccn3c(-c4ccc(OC)c(F)c4F)cnc23)ccc1C(=O)NC1CCNCC1` [Example 13, 4-[[3-(2,3-difluoro-4-methoxy-phenyl)imidazo[1,2-a]pyrazin-8-yl]amino]-2-ethyl-N-(4-piperidyl)benzamide], the IC90 in test [1] came out at 0.28 µM; in test [2], 0.276 µM.
Take `CCc1cc(Nc2nccn3c(-c4ccc(OC)c(F)c4F)cnc23)ccc1C(=O)N[C@H]1C[C@@H](NC(=O)[C@@H](N)CCCNC(=N)N)C1` [Example 37, N-[3-[[(2S)-2-amino-5-carbamimidamidopentanoyl]amino]cyclobutyl]-4-[[3-(2,3-difluoro-4-methoxyphenyl)imidazo[1,2-a]pyrazin-8-yl]amino]-2-ethylbenzamide;2,2,2-trifluoroacetic acid]: the 90% effect concentration (IC90) in test [1] and in test [2] was 0.099 µM each time.
With `CCc1cc(Nc2nccn3c(-c4ccc(OC)c(F)c4F)cnc23)ccc1C(=O)N[C@H]1C[C@@H](N)C1` [Example 11, Cis N-(3-aminocyclobutyl)-4-[[3-(2,3-difluoro-4-methoxy-phenyl)imidazo[1,2-a]pyrazin-8-yl]amino]-2-ethyl-benzamide], the concentration for an effect of 90% (IC90) in test [1] and in test [2] was 0.084 µM in each case.
On to `CCc1cc(Nc2nccn3c(-c4ccc(OC)c(F)c4F)cnc23)ccc1C(=O)N[C@H]1C[C@H](N)C1` [Example 14, N-(3-aminocyclobutyl)-4-[[3-(2,3-difluoro-4-methoxy-phenyl)imidazo[1,2-a]pyrazin-8-yl]amino]-2-ethyl-benzamide], for which the IC90 in test [1] came out at 0.25 µM; in test [2], 0.248 µM.
For the molecule `Cc1cc(Nc2nccn3c(-c4ccc(OC(F)F)cc4)cnc23)ccc1C(=O)N[C@H]1[C@@H](O)[C@H](O)[C@@H](CO)O[C@@H]1O` [Example 23, 4-[[3-[4-(difluoromethoxy)phenyl]imidazo[1,2-a]pyrazin-8-yl]amino]-2-methyl-N-[(2S,3S,4R,5S,6R)-2,4,5-trihydroxy-6-(hydroxymethyl)oxan-3-yl]benzamide], in test [1], the IC90 came out at 8 µM.
On the same count and under the same terms, with `Cc1cc(Nc2nccn3c(-c4ccc(OC(F)F)cc4)cnc23)ccc1C(=O)NC1CN2CCC1CC2` (stereo not drawn) [Example 2, 4-((3-(4-(difluoromethoxy)phenyl)imidazo[1,2-a]pyrazin-8-yl)amino)-2-methyl-N-(quinuclidin-3-yl)benzamide] the figure was 3.2 µM; with `COc1ccc(-c2cnc3c(Nc4ccc(C(=O)N(C)[C@@H]5CNC[C@H]5O)c(C)c4)nccn23)cc1F` [Example 17, 4-[[3-(3-fluoro-4-methoxyphenyl)imidazo[1,2-a]pyrazin-8-yl]amino]-N-[(3R,4R)-4-hydroxypyrrolidin-3-yl]-N,2-dimethylbenzamide;hydrochloride], 2.6 µM; with `COc1ccc(-c2cnc3c(Nc4ccc(C(=O)NC5CCN(C)CC5)c(C)c4)nccn23)cc1` [Example 1, 4-((3-(4-methoxyphenyl)imidazo[1,2-a]pyrazin-8-yl)amino)-2-methyl-N-(1-methylpiperidin-4-yl)benzamide], 2.2 µM.
The same measure, in the same setting: to `CCc1cc(Nc2nccn3c(-c4ccc(OC(F)F)c(F)c4F)cnc23)ccc1C(=O)NC1(CN)CC1` [Example 29, N-[1-(aminomethyl)cyclopropyl]-4-[[3-[4-(difluoromethoxy)-2,3-difluorophenyl]imidazo[1,2-a]pyrazin-8-yl]amino]-2-ethylbenzamide;hydrochloride] belongs 0.71 µM.
The same measure, in the same setting: with `COc1ccc(-c2cnc3c(Nc4ccc(C(=O)N(C)C5CCN(C)CC5)c(C)c4)nccn23)cc1` [Example 15, 4-[[3-(4-methoxyphenyl)imidazo[1,2-a]pyrazin-8-yl]amino]-N,2-dimethyl-N-(1-methylpiperidin-4-yl)benzamide] the figure was 5.3 µM.
For the molecule `COc1ccc(-c2cnc3c(Nc4ccc(C(=O)NC5COC(CN)OC5)c(C)c4)nccn23)cc1` (stereo not drawn) [Example 7, N-(2-(aminomethyl)-1,3-dioxan-5-yl)-4-((3-(4-methoxyphenyl)imidazo [1,2-a]pyrazin-8-yl)amino)-2-methylbenzamide], in test [1], the IC90 worked out at 0.54 µM.
The molecule `COc1ccc(-c2cnc3c(Nc4ccc(C(=O)N[C@H]5CCNC[C@H]5F)c(C)c4)nccn23)cc1F` [Example 26, 4-[[3-(3-fluoro-4-methoxyphenyl)imidazo[1,2-a]pyrazin-8-yl]amino]-N-[(3R,4S)-3-fluoropiperidin-4-yl]-2-methylbenzamide;2,2,2-trifluoroacetic acid] came in with an IC90 in test [1] of 2.7 µM.
On the same count and under the same terms, with `CCc1cc(Nc2nccn3c(-c4ccc(OC)c(F)c4F)cnc23)ccc1C(=O)N[C@@H]1CCNC1` [Example 3, (R)-4-((3-(2,3-difluoro-4-methoxyphenyl)imidazo[1,2-a]pyrazin-8-yl)amino)-2-ethyl-N-(pyrrolidin-3-yl)benzamide hydrochloride] the figure was 0.26 µM; with `CCc1cc(Nc2nccn3c(-c4ccc(OC)c(F)c4F)cnc23)ccc1C(=O)N[C@H]1CCNC1=O` [Example 30, 4-[[3-(2,3-difluoro-4-methoxyphenyl)imidazo[1,2-a]pyrazin-8-yl]amino]-2-ethyl-N-[(3 S)-2-oxopyrrolidin-3-yl]benzamide], 0.93 µM.
